Laboratory results as given in patent publication US12180207B2 (ARRAY BIOPHARMA INC., priority 2018, dated 2024).

Experiments:
[1] = biological target: FGFR3 (SEQ ID NO: 5, amino acids 449-759) (Homo sapiens (Human), UniProt P22607); assay: LC/MS FGFR3 kobs assay (covalent protein modification); assay type: binding; details: 500 nM FGFR3, 3 μM compound
How it was run: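 Quench: 0.4% formic acid at each time point. Readout: intact-protein LC/MS (Q-TOF), deconvoluted masses. Analysis: % unmodified, normalized to DMSO controls, fit to exponential decay → kobs; mean of replicates where repeated.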

[2] = biological target: HEK-293 cells transfected with dox-inducible human wild type FGFR1 (Homo sapiens (Human), UniProt P11362); assay: FGFR1 pERK cell assay; assay type: cell-based; details: HEK-293 dox-inducible FGFR1, 1 hour compound, 100 ng/ml FGF-acidic; maximum concentration 5 μM
How it was run: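 In HEK-293 cells with dox-induced human wild-type FGFR1, compounds (1:3 dilutions, top 5 μM final) were applied 1 h at 37°C before 5 min stimulation with 100 ng/ml FGF-acidic. Phospho-ERK1/2 measured by MSD sandwich immunoassay; IC50 from 4-parameter fit of POC versus vehicle and control compound.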

[3] = biological target: recombinant human FGFR2 cytoplasmic domain (amino acids 403-822) (Homo sapiens (Human), UniProt P21802); assay: FGFR2 enzyme activity assay (LanthaScreen TR-FRET); assay type: biochemical; details: 15 μM ATP, 20 min incubation at 22° C., average of multiple determinations if made, read-out: FGFR2 Enz FRET IC50
How it was run: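 Substrate phosphorylation was read by TR-FRET using Eu-PY20 antibody (60 min, 22 °C) after a 20 min, 22 °C reaction. The reaction used 15 μM ATP, 100 nM fluorescent poly-GT peptide and His-tagged FGFR2 403-822 ([…]) at pH 7.5 with 2% DMSO.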

FGFR3 (SEQ ID NO: 5, amino acids 449-759), sequence (P22607 449-759): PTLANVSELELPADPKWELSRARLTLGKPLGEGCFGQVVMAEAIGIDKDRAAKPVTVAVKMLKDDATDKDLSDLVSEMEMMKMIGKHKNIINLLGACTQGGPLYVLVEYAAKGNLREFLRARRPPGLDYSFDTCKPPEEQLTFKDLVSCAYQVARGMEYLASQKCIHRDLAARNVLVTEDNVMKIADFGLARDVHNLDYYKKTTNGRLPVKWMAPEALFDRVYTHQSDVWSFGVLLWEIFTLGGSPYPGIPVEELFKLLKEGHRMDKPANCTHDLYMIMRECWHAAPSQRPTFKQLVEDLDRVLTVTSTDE
HEK-293 cells transfected with dox-inducible human wild type FGFR1, sequence (P11362 22-822): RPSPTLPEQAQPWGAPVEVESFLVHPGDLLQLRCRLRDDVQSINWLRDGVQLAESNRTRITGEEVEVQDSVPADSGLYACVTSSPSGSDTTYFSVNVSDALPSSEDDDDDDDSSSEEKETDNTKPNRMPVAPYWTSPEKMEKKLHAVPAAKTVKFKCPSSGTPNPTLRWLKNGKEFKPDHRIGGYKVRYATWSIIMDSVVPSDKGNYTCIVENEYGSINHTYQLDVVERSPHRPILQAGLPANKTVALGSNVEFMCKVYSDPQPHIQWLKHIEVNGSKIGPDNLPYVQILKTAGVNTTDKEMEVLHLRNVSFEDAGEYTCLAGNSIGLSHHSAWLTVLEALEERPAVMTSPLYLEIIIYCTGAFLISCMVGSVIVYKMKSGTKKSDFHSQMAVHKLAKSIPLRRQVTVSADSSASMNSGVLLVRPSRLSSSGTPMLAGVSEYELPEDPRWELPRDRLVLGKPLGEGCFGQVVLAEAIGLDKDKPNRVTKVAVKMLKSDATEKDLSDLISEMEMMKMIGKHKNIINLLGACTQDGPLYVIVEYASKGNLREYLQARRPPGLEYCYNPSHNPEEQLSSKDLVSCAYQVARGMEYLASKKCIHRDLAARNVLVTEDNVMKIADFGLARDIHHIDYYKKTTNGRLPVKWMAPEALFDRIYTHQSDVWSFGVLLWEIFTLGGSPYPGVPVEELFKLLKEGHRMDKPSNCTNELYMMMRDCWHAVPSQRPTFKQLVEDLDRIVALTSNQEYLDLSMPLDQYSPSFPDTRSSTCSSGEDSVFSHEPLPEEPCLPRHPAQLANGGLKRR
recombinant human FGFR2 cytoplasmic domain (amino acids 403-822), sequence (P21802 402-821): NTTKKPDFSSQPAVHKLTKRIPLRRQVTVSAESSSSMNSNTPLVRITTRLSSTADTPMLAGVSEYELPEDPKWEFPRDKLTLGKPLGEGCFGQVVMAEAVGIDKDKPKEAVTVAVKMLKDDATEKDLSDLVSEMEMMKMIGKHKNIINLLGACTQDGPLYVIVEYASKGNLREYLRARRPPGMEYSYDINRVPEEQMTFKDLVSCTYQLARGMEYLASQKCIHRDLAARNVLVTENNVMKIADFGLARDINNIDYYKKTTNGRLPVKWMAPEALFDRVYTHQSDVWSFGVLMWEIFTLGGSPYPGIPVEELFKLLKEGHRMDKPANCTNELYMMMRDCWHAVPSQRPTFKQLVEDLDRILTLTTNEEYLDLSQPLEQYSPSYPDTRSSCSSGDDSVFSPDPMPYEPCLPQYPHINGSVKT

| Compound | FGFR3 Enz kobs [1] | IC50 [2] | IC50 [3] |
| --- | --- | --- | --- |
| C=CC(=O)N1CC(C(=O)N2C3CCC2CN(c2ccc(-c4cc(OC)c5c(C#N)cnn5c4)cn2)C3)C1 [Example 50, 6-(6-(8-(1-acryloylazetidine-3-carbonyl)-3,8-diazabicyclo[3.2.1]octan-3-yl)pyridin-3-yl)-4-methoxypyrazolo[1,5-a]pyridine-3-carbonitrile] | 0.04375 min⁻¹ | 103 nM | 4 nM |
| C=CC(=O)N1CC(C(=O)N2CC3CCC(C2)N3c2ccc(-c3cc(OC)c4c(C#N)cnn4c3)cn2)C1 [Example 51, 6-(6-(3-(1-acryloylazetidine-3-carbonyl)-3,8-diazabicyclo[3.2.1]octan-8-yl)pyridin-3-yl)-4-methoxypyrazolo[1,5-a]pyridine-3-carbonitrile] | 0.01769 min⁻¹ | 198 nM | 9 nM |
| C=CC(=O)N1CC(C(=O)N2C3CC2CN(c2ccc(-c4cc(OC)c5c(C#N)cnn5c4)cn2)C3)C1 [Example 52, 6-(6-(6-(1-acryloylazetidine-3-carbonyl)-3,6-diazabicyclo[3.1.1]heptan-3-yl)pyridin-3-yl)-4-methoxypyrazolo[1,5-a]pyridine-3-carbonitrile] | 0.00929 min⁻¹ | 759 nM | 14 nM |
| C=CC(=O)N1CC(C)(C(=O)N2CCC(n3ncc(-c4cc(OC)c5c(C#N)cnn5c4)c3C)CC2)C1 [Example 86, 6-(1-(1-(1-acryloyl-3-methylazetidine-3-carbonyl)piperidin-4-yl)-5-methyl-1H-pyrazol-4-yl)-4-methoxypyrazolo[1,5-a]pyridine-3-carbonitrile] | 0.02116 min⁻¹ | 2370 nM | 96 nM |
| C=CC(=O)N1CC(C(=O)N2CCC(n3ncc(-c4cc(OC)c5c(C#N)cnn5c4)c3C)CC2)C1(C)C (stereo not drawn) [Example 87, 6-(1-(1-(1-acryloyl-2,2-dimethylazetidine-3-carbonyl)piperidin-4-yl)-5-methyl-1H-pyrazol-4-yl)-4-methoxypyrazolo[1,5-a]pyridine-3-carbonitrile] | 0.00502 min⁻¹ | 2350 nM | 18 nM |
| C=CC(=O)N1CC(OC)(C(=O)N2CCC(n3ncc(-c4cc(OC)c5c(C#N)cnn5c4)c3C)CC2)C1 [Example 88, 6-(1-(1-(1-acryloyl-3-methoxyazetidine-3-carbonyl)piperidin-4-yl)-5-methyl-1H-pyrazol-4-yl)-4-methoxypyrazolo[1,5-a]pyridine-3-carbonitrile] | 0.05581 min⁻¹ | 605 nM | 69 nM |
| C=CC(=O)N1CC(CN2CCC(n3ncc(-c4cc(OC)c5c(C#N)cnn5c4)c3C)CC2)C1 [Example 89, 6-(1-(1-((1-acryloylazetidin-3-yl)methyl)piperidin-4-yl)-5-methyl-1H-pyrazol-4-yl)-4-methoxypyrazolo[1,5-a]pyridine-3-carbonitrile] | 0.02499 min⁻¹ | 541 nM | 50 nM |
| C=CC(=O)N1CC(C)(CN2CCC(n3ncc(-c4cc(OC)c5c(C#N)cnn5c4)c3C)CC2)C1 [Example 90, 6-(1-(1-((1-acryloyl-3-methylazetidin-3-yl)methyl)piperidin-4-yl)-5-methyl-1H-pyrazol-4-yl)-4-methoxypyrazolo[1,5-a]pyridine-3-carbonitrile] | 0.01468 min⁻¹ | 2240 nM | 56 nM |
| C=CC(=O)N1CC(CN2CCC(n3ncc(-c4cc(OC)c5c(C#N)cnn5c4)c3C)CC2)(OC)C1 [Example 91, 6-(1-(1-((1-acryloyl-3-methoxyazetidin-3-yl)methyl)piperidin-4-yl)-5-methyl-1H-pyrazol-4-yl)-4-methoxypyrazolo[1,5-a]pyridine-3-carbonitrile] | 0.04322 min⁻¹ | 341 nM | 99 nM |
| C=CC(=O)N1CC(CN2CC(n3ncc(-c4cc(OC)c5c(C#N)cnn5c4)c3C)C2)C1 [Example 92] | 0.00836 min⁻¹ | 2530 nM | 131 nM |
